# In publication PMC10819888, “Benzimidazole-Based Derivatives as Apoptotic Antiproliferative Agents: Design, Synthesis, Docking, and Mechanistic Studies” (Molecules, 2024):
# Like-named read-outs stand apart in the source and are kept apart here.
# What was measured:
# [1] = test system: SF-539; experiment: NCI-60 five-dose assay; type: cell-based, human; settings: SF-539 (CNS Cancer), 48 h; for GI50 / CC50: Homo sapiens; for GI50: read-out: GI50 Conc. per Cell Line; for CC50: read-out: LC50 (the source's name)
# [2] = test system: HCC-2998; experiment: NCI-60 five-dose assay; type: cell-based, human; settings: HCC-2998 (Colon Cancer), 48 h; for GI50 / CC50: Homo sapiens; for GI50: read-out: GI50 Conc. per Cell Line; for CC50: read-out: LC50 (the source's name)
# [3] = test system: SK-MEL-5; experiment: NCI-60 five-dose assay; type: cell-based, human; settings: SK-MEL-5 (Melanoma), 48 h; for GI50 / CC50: Homo sapiens; for GI50: read-out: GI50 Conc. per Cell Line; for CC50: read-out: LC50 (the source's name)
# [4] = test system: Ovarian Cancer subpanel; experiment: NCI-60 five-dose assay, subpanel; type: cell-based, human; settings: for GI50: Homo sapiens, Ovarian Cancer, average sensitivity of all subpanel cell lines, read-out: GI50 Subpanel MID b; for GI50 Selectivity Ratio (MID a/MID b): Ovarian Cancer subpanel
# [5] = test system: MDA-MB-468; experiment: NCI-60 five-dose assay; type: cell-based, human; settings: MDA-MB-468 (Breast Cancer), 48 h; for GI50: read-out: GI50 Conc. per Cell Line
# [6] = test system: MDA-MB-435; experiment: NCI-60 five-dose assay; type: cell-based, human; settings: MDA-MB-435 (Melanoma), 48 h; for GI50 / CC50: Homo sapiens; for GI50: read-out: GI50 Conc. per Cell Line; for CC50: read-out: LC50 (the source's name)
# [7] = test system: CNS Cancer subpanel; experiment: NCI-60 five-dose assay, subpanel; type: cell-based, human; settings: for GI50 Selectivity Ratio (MID a/MID b): CNS Cancer subpanel; for GI50: Homo sapiens, CNS Cancer, average sensitivity of all subpanel cell lines, read-out: GI50 Subpanel MID b
# [8] = test system: K-562; experiment: NCI-60 five-dose assay; type: cell-based, human; settings: K-562 (Leukemia), 48 h; for GI50 / CC50: Homo sapiens, K562; for GI50: read-out: GI50 Conc. per Cell Line; for CC50: read-out: LC50 (the source's name)
# [9] = test system: A549/ATCC; experiment: NCI-60 five-dose assay; type: cell-based, human; settings: A549/ATCC (Non-Small Cell Lung Cancer), 48 h; for GI50 / CC50: Homo sapiens; for GI50: read-out: GI50 Conc. per Cell Line; for CC50: read-out: LC50 (the source's name)
# [10] = test system: SNB-19; experiment: NCI-60 five-dose assay; type: cell-based, human; settings: SNB-19 (CNS Cancer), 48 h; for GI50 / CC50: Homo sapiens; for GI50: read-out: GI50 Conc. per Cell Line; for CC50: read-out: LC50 (the source's name)
# [11] = test system: MDA-MB-231; experiment: NCI-60 five-dose assay; type: cell-based, human; settings: MDA-MB-231 (Breast Cancer), 48 h; for GI50 / CC50: Homo sapiens; for GI50: read-out: GI50 Conc. per Cell Line; for CC50: read-out: LC50 (the source's name)
# [12] = test system: IGROV1; experiment: NCI-60 five-dose assay; type: cell-based, human; settings: IGROV1 (Ovarian Cancer), 48 h; for GI50 / CC50: Homo sapiens, IGROV-1; for GI50: read-out: GI50 Conc. per Cell Line; for CC50: read-out: LC50 (the source's name)
# [13] = test system: Colon Cancer subpanel; experiment: NCI-60 five-dose assay, subpanel; type: cell-based, human; settings: for GI50 Selectivity Ratio (MID a/MID b): Colon Cancer subpanel; for GI50: Homo sapiens, Colon Cancer, average sensitivity of all subpanel cell lines, read-out: GI50 Subpanel MID b
# [14] = test system: MALME-3M; experiment: NCI-60 five-dose assay; type: cell-based, human; settings: MALME-3M (Melanoma), 48 h; for GI50: read-out: GI50 Conc. per Cell Line
# [15] = test system: HCT-116; experiment: NCI-60 five-dose assay; type: cell-based, human; settings: HCT-116 (Colon Cancer), 48 h; for GI50 / CC50: Homo sapiens; for GI50: read-out: GI50 Conc. per Cell Line; for CC50: read-out: LC50 (the source's name)
# [16] = test system: NCI-H226; experiment: NCI-60 five-dose assay; type: cell-based, human; settings: NCI-H226 (Non-Small Cell Lung Cancer), 48 h; for GI50 / CC50: Homo sapiens; for GI50: read-out: GI50 Conc. per Cell Line; for CC50: read-out: LC50 (the source's name)
# [17] = test system: TK-10; experiment: NCI-60 five-dose assay; type: cell-based, human; settings: TK-10 (Renal Cancer), 48 h; for GI50 / CC50: Homo sapiens; for GI50: read-out: GI50 Conc. per Cell Line; for CC50: read-out: LC50 (the source's name)
# [18] = test system: Leukemia subpanel; experiment: NCI-60 five-dose assay, subpanel; type: cell-based, human; settings: for GI50: Homo sapiens, Leukemia, average sensitivity of all subpanel cell lines, read-out: GI50 Subpanel MID b
# [19] = test system: HCT-15; experiment: NCI-60 five-dose assay; type: cell-based, human; settings: HCT-15 (Colon Cancer), 48 h; for GI50 / CC50: Homo sapiens; for GI50: read-out: GI50 Conc. per Cell Line; for CC50: read-out: LC50 (the source's name)
# [20] = test system: HOP-62; experiment: NCI-60 five-dose assay; type: cell-based, human; settings: HOP-62 (Non-Small Cell Lung Cancer), 48 h; for GI50 / CC50: Homo sapiens; for GI50: read-out: GI50 Conc. per Cell Line; for CC50: read-out: LC50 (the source's name)
# [21] = molecular target: BRAF^V600E; experiment: biochemical
# [22] = test system: CCRF-CEM; experiment: NCI-60 five-dose assay; type: cell-based, human; settings: CCRF-CEM (Leukemia), 48 h; for GI50 / CC50: Homo sapiens; for GI50: read-out: GI50 Conc. per Cell Line; for CC50: read-out: LC50 (the source's name)
# [23] = test system: full panel of 60 human tumor cell lines; experiment: NCI-60 five-dose assay, full panel; type: cell-based
# [24] = test system: M14; experiment: NCI-60 five-dose assay; type: cell-based, human; settings: M14 (Melanoma), 48 h; for GI50 / CC50: Homo sapiens; for GI50: read-out: GI50 Conc. per Cell Line; for CC50: read-out: LC50 (the source's name)
# [25] = test system: CAKI-1; experiment: NCI-60 five-dose assay; type: cell-based, human; settings: CAKI-1 (Renal Cancer), 48 h; for GI50 / CC50: Homo sapiens; for GI50: read-out: GI50 Conc. per Cell Line; for CC50: read-out: LC50 (the source's name)
# [26] = test system: SNB-75; experiment: NCI-60 five-dose assay; type: cell-based, human; settings: SNB-75 (CNS Cancer), 48 h; for GI50 / CC50: Homo sapiens; for GI50: read-out: GI50 Conc. per Cell Line; for CC50: read-out: LC50 (the source's name)
# [27] = average sensitivity of all cell lines, read-out: MID a (GI50)
# [28] = five-dose assay, range over cell lines, read-out: GI50 range over the examined cell lines
# BRAF^V600E, sequence (P28028 whole entry V585E): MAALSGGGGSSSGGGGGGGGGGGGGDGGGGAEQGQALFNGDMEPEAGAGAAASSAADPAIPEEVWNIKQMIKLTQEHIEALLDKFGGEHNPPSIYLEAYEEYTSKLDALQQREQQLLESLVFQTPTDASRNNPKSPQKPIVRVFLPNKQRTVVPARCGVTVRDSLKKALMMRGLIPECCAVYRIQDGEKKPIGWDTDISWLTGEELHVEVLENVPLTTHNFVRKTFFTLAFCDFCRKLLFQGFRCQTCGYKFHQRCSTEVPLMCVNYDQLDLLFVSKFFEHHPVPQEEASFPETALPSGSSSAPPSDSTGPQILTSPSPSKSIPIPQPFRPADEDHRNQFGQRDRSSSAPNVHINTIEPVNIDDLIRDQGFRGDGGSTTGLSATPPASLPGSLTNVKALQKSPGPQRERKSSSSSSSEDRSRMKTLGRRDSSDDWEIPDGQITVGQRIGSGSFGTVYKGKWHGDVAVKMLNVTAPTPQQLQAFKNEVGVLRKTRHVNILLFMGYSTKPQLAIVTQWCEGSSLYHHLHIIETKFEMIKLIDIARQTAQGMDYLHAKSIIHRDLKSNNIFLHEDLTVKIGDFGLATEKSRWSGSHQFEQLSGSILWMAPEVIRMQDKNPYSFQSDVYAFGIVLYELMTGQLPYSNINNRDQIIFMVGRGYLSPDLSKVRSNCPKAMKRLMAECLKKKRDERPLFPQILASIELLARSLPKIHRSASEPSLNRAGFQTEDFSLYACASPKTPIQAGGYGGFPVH
smiles,measurement,setting,value
"O=C(NN=Cc1ccc([N+](=O)[O-])cc1)c1ccc2[nH]c(-c3ccc(Cl)cc3)nc2c1 [Compound 4c, N′-(4-Nitrobenzylidene)-2-(4-chlorophenyl)-1H-benzimidazole-5-carbohydrazide]",GI50,[1],2.73 µM
same,CC50,[1],33.8 µM
same,TGI,[1],10.10 µM
same,TGI,[2],4.81 µM
same,GI50,[2],1.48 µM
same,CC50,[2],28.1 µM
same,GI50,[3],2.11 µM
same,CC50,[3],12.8 µM
same,TGI,[3],4.78 µM
same,GI50,[4],5.77 µM
same,GI50 Selectivity Ratio (MID a/MID b),[4],0.57
same,GI50,[5]; Homo sapiens,1.97 µM
same,TGI,[5],4.79 µM
same,GI50,[6],3.57 µM
same,CC50,[6],47.6 µM
same,TGI,[6],12.20 µM
same,GI50 Selectivity Ratio (MID a/MID b),[7],0.81
same,GI50,[7],4.05 µM
same,GI50,[8],0.499 µM
same,CC50,[8],54.6 µM
same,TGI,[8],8.44 µM
same,TGI,[9],24.10 µM
same,GI50,[9],3.98 µM
same,CC50,[9],> 100 µM
same,GI50,[10],7.48 µM
same,CC50,[10],> 100 µM
same,TGI,[10],32.40 µM
same,GI50,[11],3.75 µM
same,CC50,[11],69.1 µM
same,TGI,[11],13.90 µM
same,GI50,[12],3.04 µM
same,CC50,[12],52.4 µM
same,TGI,[12],11.40 µM
same,GI50 Selectivity Ratio (MID a/MID b),[13],1.30
same,GI50,[13],2.53 µM
same,GI50,[14]; Homo sapiens,1.48 µM
same,TGI,[14],5.00 µM
same,TGI,[15],6.90 µM
same,GI50,[15],2.25 µM
same,CC50,[15],82.3 µM
same,GI50,[16],5.03 µM
same,CC50,[16],> 100 µM
same,TGI,[16],31.20 µM
same,GI50,[17],8.99 µM
same,CC50,[17],> 100 µM
same,TGI,[17],40.23 µM
same,GI50,[18],0.55 µM
same,TGI,[19],13.30 µM
same,GI50,[19],2.6 µM
same,CC50,[19],> 100 µM
same,TGI,[20],30.80 µM
same,GI50,[20],6.42 µM
same,CC50,[20],> 100 µM
same,IC50,[21],0.31 ± 0.07 µM
same,TGI,[22],17.70 µM
same,GI50,[22],0.591 µM
same,CC50,[22],> 100 µM
same,GI50,[23]; [27],3.28 µM
same,GI50,[23]; [28],0.42 to 8.99 µM
same,GI50,[24],2.73 µM
same,CC50,[24],67.1 µM
same,TGI,[24],9.13 µM
same,TGI,[25],16.10 µM
same,GI50,[25],3.49 µM
same,CC50,[25],85.4 µM
same,GI50,[26],2.78 µM
same,CC50,[26],> 100 µM
same,TGI,[26],18.00 µM
"O=C(NN=Cc1ccc(Cl)cc1)c1ccc2[nH]c(-c3ccc(Cl)cc3)nc2c1 [Compound 4e, N′-(4-Chlorobenzylidene)-2-(4-chlorophenyl)-1H-benzimidazole-5-carbohydrazide]",GI50,[1],1.7 µM
same,CC50,[1],5.93 µM
same,TGI,[1],3.17 µM
same,TGI,[2],3.44 µM
same,GI50,[2],1.82 µM
same,CC50,[2],6.5 µM
same,GI50,[3],1.81 µM
same,CC50,[3],6.33 µM
same,TGI,[3],3.39 µM
same,GI50,[4],1.81 µM
same,GI50 Selectivity Ratio (MID a/MID b),[4],0.99
same,LC50 (concentration killing 50% of cells),[5]; Homo sapiens,6.36 µM
same,GI50,[5]; Homo sapiens,1.64 µM
same,TGI,[5],3.23 µM
same,GI50,[6],1.73 µM
same,CC50,[6],6.49 µM
same,TGI,[6],3.35 µM
same,GI50 Selectivity Ratio (MID a/MID b),[7],0.92
same,GI50,[7],1.94 µM
same,GI50,[8],0.969 µM
same,CC50,[8],12.3 µM
same,TGI,[8],3.23 µM
same,TGI,[9],4.53 µM
same,GI50,[9],2.16 µM
same,CC50,[9],9.52 µM
same,GI50,[10],2.34 µM
same,CC50,[10],13.3 µM
same,TGI,[10],5.06 µM
same,GI50,[11],1.85 µM
same,CC50,[11],7.67 µM
same,TGI,[11],3.77 µM
same,GI50,[12],1.5 µM
same,CC50,[12],5.92 µM
same,TGI,[12],2.98 µM
same,GI50 Selectivity Ratio (MID a/MID b),[13],1.04
same,GI50,[13],1.72 µM
same,LC50,[14]; Homo sapiens,6.41 µM
same,GI50,[14]; Homo sapiens,1.55 µM
same,TGI,[14],3.15 µM
same,TGI,[15],3.51 µM
same,GI50,[15],1.45 µM
same,CC50,[15],8.52 µM
same,GI50,[16],1.77 µM
same,CC50,[16],6.86 µM
same,TGI,[16],3.48 µM
same,GI50,[17],2.06 µM
same,CC50,[17],8.98 µM
same,TGI,[17],4.30 µM
same,GI50,[18],1.33 µM
same,GI50 Selectivity Ratio (MID a/MID b),[18]; Leukemia subpanel,1.35
same,TGI,[19],3.03 µM
same,GI50,[19],1.42 µM
same,CC50,[19],6.46 µM
same,TGI,[20],4.10 µM
same,GI50,[20],1.8 µM
same,CC50,[20],9.32 µM
same,IC50,[21],0.2 ± 0.02 µM
same,TGI,[22],9.03 µM
same,GI50,[22],1.43 µM
same,CC50,[22],65.8 µM
same,GI50,[23]; [27],1.79 µM
same,LC50,"[23]; five-dose assay, range over cell lines",5.73 to 77.9 µM
same,GI50,[23]; [28],0.97 to 4.93 µM
same,GI50,[24],1.65 µM
same,CC50,[24],8.96 µM
same,TGI,[24],3.84 µM
same,TGI,[25],3.29 µM
same,GI50,[25],1.7 µM
same,CC50,[25],6.37 µM
same,GI50,[26],1.59 µM
same,CC50,[26],8.22 µM
same,TGI,[26],3.62 µM
